Source: patent US11572369B2, “Bicyclic pyridine compositions and methods of using the same for cancer therapy” (UNIVERSITY OF SOUTH CAROLINA, priority 2019, dated 2023)

Legend:
Assay in all cases: KINOMEscan
Type in all cases: binding
Details in all cases: 2000 nM
[1] = target: T1, ABL1(E255K)-phosphorylated (Homo sapiens, UniProt P00519, E255K)
T1 construct: DNA label (qPCR read-out); purchased DiscoverX (KINOMEscan service)

[2] = target: ABL1(Q252H)-nonphosphorylated (Homo sapiens, UniProt P00519, Q252H)
PIK3CA(E545A) = target: T2, PIK3CA(E545A) (Homo sapiens, UniProt P42336, E545A)
T2 construct: DNA label; purchased DiscoveRx (KINOMEscan scanMAX panel)
T2 sequence (P42336 whole entry E545A): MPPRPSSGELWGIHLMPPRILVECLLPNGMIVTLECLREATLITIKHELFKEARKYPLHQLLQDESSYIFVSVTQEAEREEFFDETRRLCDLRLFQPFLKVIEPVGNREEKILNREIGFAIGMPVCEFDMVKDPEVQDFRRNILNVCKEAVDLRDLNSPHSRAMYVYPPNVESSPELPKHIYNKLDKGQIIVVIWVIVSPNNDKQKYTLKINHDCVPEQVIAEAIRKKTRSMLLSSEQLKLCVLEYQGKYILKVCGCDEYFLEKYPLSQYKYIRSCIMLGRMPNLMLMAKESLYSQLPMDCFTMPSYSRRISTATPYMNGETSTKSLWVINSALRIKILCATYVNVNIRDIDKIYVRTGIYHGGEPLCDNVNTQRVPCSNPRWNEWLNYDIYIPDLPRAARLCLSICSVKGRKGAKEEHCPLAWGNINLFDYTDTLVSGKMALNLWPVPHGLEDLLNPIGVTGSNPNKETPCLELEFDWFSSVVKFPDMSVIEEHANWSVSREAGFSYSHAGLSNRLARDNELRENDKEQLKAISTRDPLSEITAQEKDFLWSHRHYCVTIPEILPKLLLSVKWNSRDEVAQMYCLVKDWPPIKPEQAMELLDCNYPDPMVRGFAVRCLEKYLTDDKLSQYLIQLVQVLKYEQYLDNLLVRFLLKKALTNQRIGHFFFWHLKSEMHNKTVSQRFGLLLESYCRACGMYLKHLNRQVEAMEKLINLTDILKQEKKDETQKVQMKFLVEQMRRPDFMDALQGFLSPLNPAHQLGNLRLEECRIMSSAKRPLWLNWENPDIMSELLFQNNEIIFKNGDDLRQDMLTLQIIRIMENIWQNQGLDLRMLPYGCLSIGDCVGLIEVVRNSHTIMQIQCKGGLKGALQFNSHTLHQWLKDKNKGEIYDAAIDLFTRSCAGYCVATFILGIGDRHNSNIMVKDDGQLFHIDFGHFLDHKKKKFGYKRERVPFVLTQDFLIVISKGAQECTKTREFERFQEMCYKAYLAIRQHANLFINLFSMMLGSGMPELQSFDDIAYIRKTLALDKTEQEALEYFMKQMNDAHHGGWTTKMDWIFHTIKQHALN

ACVR2A = target: T3, ACVR2A (Homo sapiens, UniProt P27037)
T3 construct: purchased DiscoveRx (KINOMEscan scanMAX panel, service)

PIK3CA(E545K) = target: T4, PIK3CA(E545K) (Homo sapiens, UniProt P42336, E545K)
T4 construct: DNA label; purchased DiscoveRx (KINOMEscan scanMAX panel)
T4 sequence (P42336 whole entry E545K): as the sequence (P42336 whole entry E545A) above, with A545K counted along it

BRSK2 = target: T5, BRSK2 (Homo sapiens, UniProt Q8IWQ3)
T5 construct: DNA label (for qPCR read-out); purchased KINOMEscan scanMAX panel (DiscoveRx)

HCK = target: T6, HCK (Homo sapiens, UniProt P08631)
T6 construct: DNA label (for qPCR read-out); purchased DiscoveRx (KINOMEscan scanMAX panel, contract assay)
T6 sequence (P08631 whole entry): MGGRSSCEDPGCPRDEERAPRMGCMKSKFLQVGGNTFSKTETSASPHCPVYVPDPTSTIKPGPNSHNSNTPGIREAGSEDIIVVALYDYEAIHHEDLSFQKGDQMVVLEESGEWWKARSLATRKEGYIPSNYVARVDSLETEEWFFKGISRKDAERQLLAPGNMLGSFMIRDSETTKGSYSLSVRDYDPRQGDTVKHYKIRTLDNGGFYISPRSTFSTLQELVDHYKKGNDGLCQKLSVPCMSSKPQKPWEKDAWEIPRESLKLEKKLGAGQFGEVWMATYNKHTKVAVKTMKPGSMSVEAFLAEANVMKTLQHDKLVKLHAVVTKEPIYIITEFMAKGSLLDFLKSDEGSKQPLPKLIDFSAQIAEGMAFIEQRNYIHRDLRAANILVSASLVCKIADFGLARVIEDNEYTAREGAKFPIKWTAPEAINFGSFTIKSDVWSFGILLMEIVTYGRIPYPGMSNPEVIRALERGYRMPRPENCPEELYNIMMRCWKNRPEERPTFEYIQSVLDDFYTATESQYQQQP

DAPK3 = target: T7, DAPK3 (Homo sapiens, UniProt O43293)
T7 construct: DNA label; purchased DiscoveRx (KINOMEscan scanMAX panel)

PIM2 = target: T8, PIM2 (Homo sapiens, UniProt Q9P1W9)
T8 construct: DNA label (qPCR read-out); purchased KINOMEscan (DiscoveRx) panel
T8 sequence (Q9P1W9 whole entry): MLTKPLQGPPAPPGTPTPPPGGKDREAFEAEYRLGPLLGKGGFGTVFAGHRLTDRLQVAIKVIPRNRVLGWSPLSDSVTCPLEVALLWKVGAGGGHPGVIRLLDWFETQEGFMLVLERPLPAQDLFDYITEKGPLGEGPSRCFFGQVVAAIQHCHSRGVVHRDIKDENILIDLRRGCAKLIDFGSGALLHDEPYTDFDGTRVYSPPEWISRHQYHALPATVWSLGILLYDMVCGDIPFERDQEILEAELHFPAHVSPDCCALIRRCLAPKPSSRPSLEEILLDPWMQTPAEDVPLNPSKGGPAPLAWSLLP

MARK3 = MARK3 (Homo sapiens, UniProt P27448)
RIPK5 = target: T9, RIPK5 (Homo sapiens, UniProt Q6XUX3)
T9 construct: DNA label (qPCR read-out); purchased DiscoveRx (KINOMEscan ScanMAX panel)

TRKA = target: T10, TRKA (Homo sapiens, UniProt P04629)
T10 construct: DNA label (qPCR read-out); purchased KINOMEscan (DiscoveRx) ScanMAX panel

SGK2 = target: T11, SGK2 (Homo sapiens, UniProt Q9HBY8)
T11 construct: purchased KINOMEscan (DiscoveRx)

PAK4 = target: T12, PAK4 (Homo sapiens, UniProt O96013)
T12 construct: purchased DiscoverX (KINOMEscan service)
T12 sequence (O96013 whole entry): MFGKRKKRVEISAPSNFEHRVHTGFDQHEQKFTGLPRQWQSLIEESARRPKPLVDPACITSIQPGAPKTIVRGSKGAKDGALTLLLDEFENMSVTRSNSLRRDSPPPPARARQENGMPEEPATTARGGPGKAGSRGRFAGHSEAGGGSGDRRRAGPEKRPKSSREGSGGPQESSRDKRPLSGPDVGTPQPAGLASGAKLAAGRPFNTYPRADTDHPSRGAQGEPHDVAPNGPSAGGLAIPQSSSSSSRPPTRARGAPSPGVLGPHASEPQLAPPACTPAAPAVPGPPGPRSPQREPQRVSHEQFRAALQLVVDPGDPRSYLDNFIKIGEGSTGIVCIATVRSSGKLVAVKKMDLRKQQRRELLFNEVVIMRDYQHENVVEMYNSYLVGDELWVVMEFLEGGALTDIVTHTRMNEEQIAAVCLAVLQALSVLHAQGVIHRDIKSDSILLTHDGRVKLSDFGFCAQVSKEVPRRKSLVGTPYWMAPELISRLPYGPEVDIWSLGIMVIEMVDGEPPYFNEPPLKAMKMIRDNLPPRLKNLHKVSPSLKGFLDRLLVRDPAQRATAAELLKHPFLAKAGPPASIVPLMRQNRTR

LATS2 = target: T13, LATS2 (Homo sapiens, UniProt Q9NRM7)
T13 construct: purchased KINOMEscan (DiscoveRx) panel service

EPHB2 = target: T14, EPHB2 (Homo sapiens, UniProt P29323)
T14 construct: purchased DiscoveRx (KINOMEscan scanMAX panel)

ASK1 = target: T15, ASK1 (Homo sapiens, UniProt Q99683)
T15 construct: DNA label (qPCR read-out); purchased KINOMEscan scanMAX panel (DiscoveRx)

MYLK2 = target: T16, MYLK2 (Homo sapiens, UniProt Q9H1R3)
T16 construct: DNA label (for qPCR read-out); purchased KINOMEscan scanMAX panel (DiscoveRx)

TYRO3 = target: T17, TYRO3 (Homo sapiens, UniProt Q06418)
T17 construct: DNA label (for qPCR read-out); purchased DiscoveRx (KINOMEscan scanMAX panel)

EPHB1 = target: T18, EPHB1 (Homo sapiens, UniProt P54762)
T18 construct: purchased DiscoveRx (KINOMEscan scanMAX panel)

INSRR = target: T19, INSRR (Homo sapiens, UniProt P14616)
T19 construct: DNA label (qPCR read-out); purchased KINOMEscan (DiscoveRx) ScanMAX panel

WEE1 = target: T20, WEE1 (Homo sapiens, UniProt P30291)
T20 construct: purchased KINOMEscan (DiscoveRx) panel service

EGFR(L747-T751del, Sins) = target: T21, EGFR(L747-T751del, Sins) (Homo sapiens, UniProt P00533, DEL747-750/T751S)
T21 construct: purchased DiscoveRx (KINOMEscan scanMAX panel)

ADCK4 = target: T22, ADCK4 (Homo sapiens, UniProt Q96D53)
T22 construct: purchased DiscoveRx (KINOMEscan scanMAX panel, service)
T22 sequence (Q96D53 whole entry): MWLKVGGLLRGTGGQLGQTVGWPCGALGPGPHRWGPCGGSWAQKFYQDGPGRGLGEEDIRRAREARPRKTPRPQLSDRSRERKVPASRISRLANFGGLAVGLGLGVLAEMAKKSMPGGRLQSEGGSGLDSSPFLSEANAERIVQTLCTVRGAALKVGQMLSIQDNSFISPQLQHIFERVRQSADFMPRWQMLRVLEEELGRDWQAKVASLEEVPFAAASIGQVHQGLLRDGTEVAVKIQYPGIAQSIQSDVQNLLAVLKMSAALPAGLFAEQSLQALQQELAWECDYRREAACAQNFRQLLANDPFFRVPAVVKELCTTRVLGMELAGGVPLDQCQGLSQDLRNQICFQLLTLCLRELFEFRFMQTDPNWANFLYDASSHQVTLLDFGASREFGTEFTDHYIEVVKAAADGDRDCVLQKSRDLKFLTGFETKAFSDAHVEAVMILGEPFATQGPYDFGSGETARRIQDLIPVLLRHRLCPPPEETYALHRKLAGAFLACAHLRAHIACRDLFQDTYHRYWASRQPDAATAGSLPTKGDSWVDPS

MAPKAPK2 = MAPKAPK2 (Homo sapiens, UniProt P49137)
YSK1 = target: T23, YSK1 (Homo sapiens, UniProt O00506)
T23 construct: purchased KINOMEscan (DiscoveRx) panel service

SIK = target: T24, SIK (Homo sapiens, UniProt P57059)
T24 construct: purchased KINOMEscan (DiscoveRx)
T24 sequence (P57059 whole entry): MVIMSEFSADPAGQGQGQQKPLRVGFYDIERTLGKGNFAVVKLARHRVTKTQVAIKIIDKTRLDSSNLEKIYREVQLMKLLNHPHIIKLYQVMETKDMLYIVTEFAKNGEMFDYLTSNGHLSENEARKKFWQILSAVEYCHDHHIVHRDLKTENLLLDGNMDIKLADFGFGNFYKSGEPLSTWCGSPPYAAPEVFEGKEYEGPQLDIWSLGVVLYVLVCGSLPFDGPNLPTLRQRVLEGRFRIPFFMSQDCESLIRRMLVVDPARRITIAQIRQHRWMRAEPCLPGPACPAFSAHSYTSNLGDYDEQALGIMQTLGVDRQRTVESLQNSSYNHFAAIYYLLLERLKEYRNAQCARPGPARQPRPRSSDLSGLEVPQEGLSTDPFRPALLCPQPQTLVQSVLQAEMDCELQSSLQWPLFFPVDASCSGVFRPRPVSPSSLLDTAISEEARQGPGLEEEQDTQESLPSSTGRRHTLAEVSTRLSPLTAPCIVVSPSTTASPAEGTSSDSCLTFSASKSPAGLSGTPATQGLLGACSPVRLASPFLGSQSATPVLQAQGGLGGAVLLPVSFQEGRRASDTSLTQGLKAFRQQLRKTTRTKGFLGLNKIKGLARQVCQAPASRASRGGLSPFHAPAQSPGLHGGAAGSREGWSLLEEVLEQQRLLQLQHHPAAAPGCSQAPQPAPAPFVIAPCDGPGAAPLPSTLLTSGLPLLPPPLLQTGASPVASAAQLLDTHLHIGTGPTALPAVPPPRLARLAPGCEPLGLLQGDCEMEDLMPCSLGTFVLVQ

LOK = target: T25, LOK (Homo sapiens, UniProt O94804)
T25 construct: purchased KINOMEscan (DiscoveRx) panel service

MLCK = target: T26, MLCK (Homo sapiens, UniProt Q32MK0)
T26 construct: DNA label (qPCR read-out); purchased KINOMEscan scanMAX panel (DiscoveRx)
T26 sequence (Q32MK0 whole entry): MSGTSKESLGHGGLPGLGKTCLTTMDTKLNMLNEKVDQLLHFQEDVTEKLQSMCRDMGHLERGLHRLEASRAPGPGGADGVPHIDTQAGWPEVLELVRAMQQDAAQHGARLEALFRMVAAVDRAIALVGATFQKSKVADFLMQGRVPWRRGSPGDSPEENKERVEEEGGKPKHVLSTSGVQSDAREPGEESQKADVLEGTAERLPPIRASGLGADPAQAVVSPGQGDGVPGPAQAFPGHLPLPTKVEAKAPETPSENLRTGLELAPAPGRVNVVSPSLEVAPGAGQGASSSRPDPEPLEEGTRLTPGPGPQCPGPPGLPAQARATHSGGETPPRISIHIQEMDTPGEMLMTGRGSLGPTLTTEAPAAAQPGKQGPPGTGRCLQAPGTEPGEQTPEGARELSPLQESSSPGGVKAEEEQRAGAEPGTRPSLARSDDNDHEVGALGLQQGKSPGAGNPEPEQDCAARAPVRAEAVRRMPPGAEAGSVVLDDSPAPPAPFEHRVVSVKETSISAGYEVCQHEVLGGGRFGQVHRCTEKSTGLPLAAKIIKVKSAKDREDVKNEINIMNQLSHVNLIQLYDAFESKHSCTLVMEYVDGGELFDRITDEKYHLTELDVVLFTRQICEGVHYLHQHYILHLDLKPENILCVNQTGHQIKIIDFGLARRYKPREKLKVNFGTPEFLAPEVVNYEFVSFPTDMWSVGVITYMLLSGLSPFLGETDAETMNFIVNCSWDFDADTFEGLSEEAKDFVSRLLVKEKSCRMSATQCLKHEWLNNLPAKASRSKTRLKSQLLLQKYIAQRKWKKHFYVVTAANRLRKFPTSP

MST3 = target: T27, MST3 (Homo sapiens, UniProt Q9Y6E0)
T27 construct: DNA label (for qPCR read-out); purchased KINOMEscan scanMAX panel (DiscoveRx)

FAK = target: T28, FAK (Homo sapiens, UniProt Q05397)
T28 construct: DNA label (qPCR read-out); purchased DiscoveRx (KINOMEscan ScanMAX panel)

[3] = target: T29, ABL1(F317I)-nonphosphorylated (Homo sapiens, UniProt P00519, F317I)
T29 construct: DNA label (qPCR read-out); purchased DiscoverX (KINOMEscan service)

BRK = target: T30, BRK (Homo sapiens, UniProt Q13882)
T30 construct: DNA label (for qPCR read-out); purchased KINOMEscan scanMAX panel (DiscoveRx)

[4] = target: ABL1(F317L)-nonphosphorylated (Homo sapiens, UniProt P00519, F317L)
CAMK1D = target: T31, CAMK1D (Homo sapiens, UniProt Q8IU85)
T31 construct: DNA label (qPCR read-out); purchased KINOMEscan (ScanMAX panel service)

SMILES	% Ctrl [1] [% Ctrl]	% Ctrl [2] [% Ctrl]	% Ctrl (PIK3CA(E545A)) [% Ctrl]	% Ctrl (ACVR2A) [% Ctrl]	% Ctrl (PIK3CA(E545K)) [% Ctrl]	% Ctrl (BRSK2) [% Ctrl]	% Ctrl (HCK) [% Ctrl]	% Ctrl (DAPK3) [% Ctrl]	% Ctrl (PIM2) [% Ctrl]	% Ctrl (MARK3) [% Ctrl]	% Ctrl (RIPK5) [% Ctrl]	% Ctrl (TRKA) [% Ctrl]	% Ctrl (SGK2) [% Ctrl]	% Ctrl (PAK4) [% Ctrl]	% Ctrl (LATS2) [% Ctrl]	% Ctrl (EPHB2) [% Ctrl]	% Ctrl (ASK1) [% Ctrl]	% Ctrl (MYLK2) [% Ctrl]	% Ctrl (TYRO3) [% Ctrl]	% Ctrl (EPHB1) [% Ctrl]	further results
[2H]C([2H])([2H])N(C(=O)c1ccc(N2CCCN(c3ccnc4sc(C(N)=O)c(N)c34)CC2)cc1)C([2H])([2H])[2H] [15u_D6, 3-amino-4-(4-(4-(bis(methyl-d3)carbamoyl)phenyl)-1,4-diazepan-1-yl)thieno[2,3-b]pyridine-2-carboxamide]	82	83	92	92	91	100	96	83	89	100	72	78	81	100	31	95	100	100	100	88	% Ctrl (INSRR): 89 % Ctrl; % Ctrl (WEE1): 88 % Ctrl; % Ctrl (EGFR(L747-T751del, Sins)): 100 % Ctrl; % Ctrl (ADCK4): 83 % Ctrl; % Ctrl (MAPKAPK2): 99 % Ctrl; % Ctrl (YSK1): 98 % Ctrl; % Ctrl (SIK): 79 % Ctrl; % Ctrl (LOK): 69 % Ctrl; % Ctrl (MLCK): 100 % Ctrl; % Ctrl (MST3): 84 % Ctrl; % Ctrl (FAK): 96 % Ctrl; % Ctrl [3]: 93 % Ctrl; % Ctrl (BRK): 99 % Ctrl; % Ctrl [4]: 100 % Ctrl; % Ctrl (CAMK1D): 93 % Ctrl
CN(C)C(=O)c1ccc(N2CCCN(c3ccnc4sc(C(N)=O)c(N)c34)CC2)cc1 [15u, 3-amino-4-(4-(4-(dimethylcarbamoyl)phenyl)-1,4-diazepan-1-yl)thieno[2,3-b]pyridine-2-carboxamide]	100	94	100	95	96	100	96	81	85	98	100	93	100	87	94	99	100	100	100	88	% Ctrl (INSRR): 99 % Ctrl; % Ctrl (WEE1): 100 % Ctrl; % Ctrl (EGFR(L747-T751del, Sins)): 87 % Ctrl; % Ctrl (ADCK4): 95 % Ctrl; % Ctrl (MAPKAPK2): 91 % Ctrl; % Ctrl (YSK1): 76 % Ctrl; % Ctrl (SIK): 84 % Ctrl; % Ctrl (LOK): 84 % Ctrl; % Ctrl (MLCK): 96 % Ctrl; % Ctrl (MST3): 97 % Ctrl; % Ctrl (FAK): 100 % Ctrl; % Ctrl [3]: 100 % Ctrl; % Ctrl (BRK): 100 % Ctrl; % Ctrl [4]: 99 % Ctrl; % Ctrl (CAMK1D): 87 % Ctrl
